From patent US12343326B2, “Psychoactive medicines and their use for treating psychiatric and neurological conditions and disorders” (Transcend Therapeutics, Inc., priority 2021, dated 2025)

How the values were obtained:
168 GPCRs [1] = target: 168 GPCRs (Homo sapiens, UniProt P25021); test: β-arrestin based GPCR screen (PathHunter / GPCRmax), agonist mode; format: cell-based; parameters: host or cells: PathHunter cell lines
Method: For agonist determination, cells were incubated with sample to induce response. […] Vehicle concentration was 1%.

[2] = system: myelin basic protein (MBP); test: Immunohistochemistry of myelin basic protein; format: in vivo, rat; conditions: 10 mg/kg IP, 24 h
Method: Immunohistochemistry: The in-life portion of the study was conducted at WuXi Apptec (Cranbury, NJ). Sectioning and staining of brains took place at Neuroscience Associates (NSA, Knoxville, TN). […] Brains were post-fixed in PFA before shipment to NSA for processing and staining. Hemisected brains were mounted, sectioned and stained using standard protocols with myelin-basic protein primary antibody (MBP SMI-99, 1:5000, Biolegend, San Diego, CA) and anti-mouse biotinylated secondary antibody (BA-2001, Vector Laboratories, Newark, CA). Slides were imaged using a Huron Digital Pathology TissueScope LE120 whole slide scanning system. 20× objective was used with a 0.4 μm/pixel resolution.

168 GPCRs [3] = target: 168 GPCRs (Homo sapiens, UniProt P16473); test: β-arrestin based GPCR screen (PathHunter / GPCRmax), antagonist mode; conditions: TSHR(L)
168 GPCRs (Homo sapiens, UniProt P16473), sequence (P16473 21-764): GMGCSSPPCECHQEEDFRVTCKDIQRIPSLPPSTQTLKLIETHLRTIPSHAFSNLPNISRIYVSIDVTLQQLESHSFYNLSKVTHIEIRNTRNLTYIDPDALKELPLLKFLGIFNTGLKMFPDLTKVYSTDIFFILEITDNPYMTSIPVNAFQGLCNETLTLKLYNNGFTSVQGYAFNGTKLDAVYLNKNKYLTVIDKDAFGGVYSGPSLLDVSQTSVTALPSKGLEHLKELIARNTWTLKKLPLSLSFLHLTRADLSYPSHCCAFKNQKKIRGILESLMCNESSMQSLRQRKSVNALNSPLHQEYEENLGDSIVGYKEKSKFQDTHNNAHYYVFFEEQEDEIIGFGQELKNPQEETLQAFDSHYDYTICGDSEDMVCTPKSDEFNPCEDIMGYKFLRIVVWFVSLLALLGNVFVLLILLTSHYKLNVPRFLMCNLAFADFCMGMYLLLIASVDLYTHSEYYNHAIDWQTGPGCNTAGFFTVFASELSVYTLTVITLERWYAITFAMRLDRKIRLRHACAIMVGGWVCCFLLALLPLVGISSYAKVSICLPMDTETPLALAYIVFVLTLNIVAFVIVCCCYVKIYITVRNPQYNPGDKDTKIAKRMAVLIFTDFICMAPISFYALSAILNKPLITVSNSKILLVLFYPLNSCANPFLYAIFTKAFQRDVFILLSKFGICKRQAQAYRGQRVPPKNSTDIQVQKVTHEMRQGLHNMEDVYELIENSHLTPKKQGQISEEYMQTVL

168 GPCRs [4] = target: 168 GPCRs (Homo sapiens, UniProt P25101); test: as above; conditions: EDNRA
168 GPCRs (Homo sapiens, UniProt P25101), sequence (P25101 21-427): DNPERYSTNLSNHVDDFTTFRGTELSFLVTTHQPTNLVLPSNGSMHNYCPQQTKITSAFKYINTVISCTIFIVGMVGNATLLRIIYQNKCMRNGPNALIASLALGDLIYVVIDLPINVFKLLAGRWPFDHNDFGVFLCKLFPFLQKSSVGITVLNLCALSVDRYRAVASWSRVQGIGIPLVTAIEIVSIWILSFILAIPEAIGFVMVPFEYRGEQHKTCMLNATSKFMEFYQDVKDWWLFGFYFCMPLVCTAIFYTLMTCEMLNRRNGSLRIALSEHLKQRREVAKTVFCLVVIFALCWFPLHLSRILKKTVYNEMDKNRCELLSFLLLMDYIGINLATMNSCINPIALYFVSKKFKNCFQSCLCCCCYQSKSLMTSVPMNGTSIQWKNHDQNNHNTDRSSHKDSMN

168 GPCRs [5] = target: 168 GPCRs (Homo sapiens, UniProt P35368); test: as above; conditions: ADRA1B, Antagonist
168 GPCRs (Homo sapiens, UniProt P35368), sequence (P35368 whole entry): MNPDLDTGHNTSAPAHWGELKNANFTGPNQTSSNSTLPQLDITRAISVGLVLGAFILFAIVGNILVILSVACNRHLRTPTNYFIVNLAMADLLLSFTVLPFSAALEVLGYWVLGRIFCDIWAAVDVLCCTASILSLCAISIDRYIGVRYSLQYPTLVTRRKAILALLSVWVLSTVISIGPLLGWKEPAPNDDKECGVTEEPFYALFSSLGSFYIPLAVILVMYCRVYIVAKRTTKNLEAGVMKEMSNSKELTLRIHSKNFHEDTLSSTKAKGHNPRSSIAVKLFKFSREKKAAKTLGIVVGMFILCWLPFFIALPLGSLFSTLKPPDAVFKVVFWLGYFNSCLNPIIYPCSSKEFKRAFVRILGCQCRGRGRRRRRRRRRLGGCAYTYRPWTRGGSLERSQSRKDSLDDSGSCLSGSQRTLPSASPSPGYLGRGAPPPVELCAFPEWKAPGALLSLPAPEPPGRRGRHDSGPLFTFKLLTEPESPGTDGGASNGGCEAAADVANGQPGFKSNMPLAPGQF

168 GPCRs [6] = target: 168 GPCRs (Homo sapiens, UniProt P41597); test: as above; conditions: CCR2, Antagonist
168 GPCRs (Homo sapiens, UniProt P41597), sequence (P41597 whole entry): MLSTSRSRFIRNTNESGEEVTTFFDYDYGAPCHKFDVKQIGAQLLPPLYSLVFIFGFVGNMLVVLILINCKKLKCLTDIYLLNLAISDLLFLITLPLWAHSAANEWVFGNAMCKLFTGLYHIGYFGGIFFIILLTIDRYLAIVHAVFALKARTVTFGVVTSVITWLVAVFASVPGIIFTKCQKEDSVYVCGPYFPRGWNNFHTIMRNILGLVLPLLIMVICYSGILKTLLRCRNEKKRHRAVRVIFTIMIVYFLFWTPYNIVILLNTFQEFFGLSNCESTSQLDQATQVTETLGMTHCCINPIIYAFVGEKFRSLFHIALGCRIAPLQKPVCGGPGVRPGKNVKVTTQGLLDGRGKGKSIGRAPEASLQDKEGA

168 GPCRs [7] = target: 168 GPCRs (Homo sapiens, UniProt P30559); test: as above; conditions: OXTR
168 GPCRs [8] = target: 168 GPCRs (Homo sapiens, UniProt P21554); test: as above
168 GPCRs [9] = target: 168 GPCRs (Homo sapiens, UniProt P41143); test: as above
168 GPCRs (Homo sapiens, UniProt P41143), sequence (P41143 whole entry): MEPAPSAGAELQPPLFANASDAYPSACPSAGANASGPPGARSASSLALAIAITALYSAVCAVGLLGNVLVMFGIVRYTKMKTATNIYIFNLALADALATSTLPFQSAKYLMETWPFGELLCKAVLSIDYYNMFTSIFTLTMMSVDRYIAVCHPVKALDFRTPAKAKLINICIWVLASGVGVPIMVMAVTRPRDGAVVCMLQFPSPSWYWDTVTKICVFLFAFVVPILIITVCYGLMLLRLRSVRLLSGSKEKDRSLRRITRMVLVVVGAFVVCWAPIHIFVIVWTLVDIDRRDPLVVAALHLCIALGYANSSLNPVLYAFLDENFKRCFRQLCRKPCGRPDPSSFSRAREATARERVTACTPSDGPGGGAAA

168 GPCRs [10] = target: 168 GPCRs (Homo sapiens, UniProt Q96LB1); test: as above
168 GPCRs (Homo sapiens, UniProt Q96LB1), sequence (Q96LB1 whole entry): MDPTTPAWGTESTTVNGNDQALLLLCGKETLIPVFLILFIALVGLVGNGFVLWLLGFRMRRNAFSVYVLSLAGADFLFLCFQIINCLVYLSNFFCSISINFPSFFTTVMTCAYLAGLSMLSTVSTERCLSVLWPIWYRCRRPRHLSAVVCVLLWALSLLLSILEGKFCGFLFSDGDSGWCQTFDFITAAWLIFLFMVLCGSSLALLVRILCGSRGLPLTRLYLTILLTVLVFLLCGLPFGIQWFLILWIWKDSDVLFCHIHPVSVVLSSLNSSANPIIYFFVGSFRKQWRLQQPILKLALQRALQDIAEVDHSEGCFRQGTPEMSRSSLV

168 GPCRs [11] = target: 168 GPCRs (Homo sapiens, UniProt P41146); test: as above
168 GPCRs [12] = target: 168 GPCRs (Homo sapiens, UniProt P32246); test: as above; conditions: CCR1, Antagonist
168 GPCRs [13] = target: 168 GPCRs (Homo sapiens, UniProt Q15077); test: as above
168 GPCRs (Homo sapiens, UniProt Q15077), sequence (Q15077 whole entry): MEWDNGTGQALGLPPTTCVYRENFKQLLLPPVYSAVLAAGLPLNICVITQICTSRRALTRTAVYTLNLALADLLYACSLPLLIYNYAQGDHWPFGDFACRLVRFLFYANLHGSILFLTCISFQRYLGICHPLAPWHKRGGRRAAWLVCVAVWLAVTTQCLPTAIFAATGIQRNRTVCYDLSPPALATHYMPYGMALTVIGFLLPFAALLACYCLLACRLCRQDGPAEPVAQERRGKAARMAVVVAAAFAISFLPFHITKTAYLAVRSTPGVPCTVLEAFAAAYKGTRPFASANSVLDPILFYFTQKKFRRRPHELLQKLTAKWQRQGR

168 GPCRs [14] = target: 168 GPCRs (Homo sapiens, UniProt Q9P296); test: as above; conditions: C5L2, Antagonist
168 GPCRs [15] = target: 168 GPCRs (Homo sapiens, UniProt P46091); test: as above
168 GPCRs (Homo sapiens, UniProt P46091), sequence (P46091 whole entry): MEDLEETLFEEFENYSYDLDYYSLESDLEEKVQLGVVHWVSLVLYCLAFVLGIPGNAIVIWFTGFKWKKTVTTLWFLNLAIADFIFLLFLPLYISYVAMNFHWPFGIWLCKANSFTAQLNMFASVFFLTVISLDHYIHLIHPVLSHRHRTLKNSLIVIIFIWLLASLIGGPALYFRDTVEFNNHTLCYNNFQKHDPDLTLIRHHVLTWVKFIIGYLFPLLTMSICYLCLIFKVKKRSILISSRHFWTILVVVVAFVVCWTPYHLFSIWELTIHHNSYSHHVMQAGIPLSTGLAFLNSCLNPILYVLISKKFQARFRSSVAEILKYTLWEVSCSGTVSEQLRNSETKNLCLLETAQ

168 GPCRs [16] = target: 168 GPCRs (Homo sapiens, UniProt P51686); test: as above; conditions: CCR9, Antagonist
168 GPCRs [17] = target: 168 GPCRs (Homo sapiens, UniProt P41586); test: as above; conditions: ADCYAP1R1, Antagonist
168 GPCRs [18] = target: 168 GPCRs (Homo sapiens, UniProt P25929); test: as above; conditions: NPY1R
168 GPCRs (Homo sapiens, UniProt P25929), sequence (P25929 whole entry): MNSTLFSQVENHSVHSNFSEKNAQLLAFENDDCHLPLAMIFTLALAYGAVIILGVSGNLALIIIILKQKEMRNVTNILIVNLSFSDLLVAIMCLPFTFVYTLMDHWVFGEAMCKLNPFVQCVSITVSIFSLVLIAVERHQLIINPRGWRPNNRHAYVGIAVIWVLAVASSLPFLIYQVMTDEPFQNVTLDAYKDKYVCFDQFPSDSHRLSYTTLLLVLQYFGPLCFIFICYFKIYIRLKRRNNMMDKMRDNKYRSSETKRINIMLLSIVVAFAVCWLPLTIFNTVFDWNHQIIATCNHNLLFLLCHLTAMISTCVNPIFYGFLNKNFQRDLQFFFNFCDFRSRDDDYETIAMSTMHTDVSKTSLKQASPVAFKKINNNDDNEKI

168 GPCRs [19] = target: 168 GPCRs (Homo sapiens, UniProt O43193); test: as above; conditions: MLNR
168 GPCRs [20] = target: 168 GPCRs (Homo sapiens, UniProt P18825); test: as above; conditions: ADRA2C, Antagonist
168 GPCRs (Homo sapiens, UniProt P18825), sequence (P18825 whole entry): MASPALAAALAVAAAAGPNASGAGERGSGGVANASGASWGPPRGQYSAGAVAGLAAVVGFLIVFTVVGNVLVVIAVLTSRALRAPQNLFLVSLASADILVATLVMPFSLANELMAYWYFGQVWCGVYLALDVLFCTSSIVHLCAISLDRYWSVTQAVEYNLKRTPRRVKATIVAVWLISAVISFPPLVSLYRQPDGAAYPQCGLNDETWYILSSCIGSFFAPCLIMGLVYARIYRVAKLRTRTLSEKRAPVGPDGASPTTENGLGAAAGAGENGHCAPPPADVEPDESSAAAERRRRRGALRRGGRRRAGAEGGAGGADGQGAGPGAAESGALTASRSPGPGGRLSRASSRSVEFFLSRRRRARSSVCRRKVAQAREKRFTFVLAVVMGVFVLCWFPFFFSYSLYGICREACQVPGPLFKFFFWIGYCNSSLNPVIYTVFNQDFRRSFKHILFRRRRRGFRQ

168 GPCRs (Homo sapiens, UniProt P25021), sequence (P25021 whole entry): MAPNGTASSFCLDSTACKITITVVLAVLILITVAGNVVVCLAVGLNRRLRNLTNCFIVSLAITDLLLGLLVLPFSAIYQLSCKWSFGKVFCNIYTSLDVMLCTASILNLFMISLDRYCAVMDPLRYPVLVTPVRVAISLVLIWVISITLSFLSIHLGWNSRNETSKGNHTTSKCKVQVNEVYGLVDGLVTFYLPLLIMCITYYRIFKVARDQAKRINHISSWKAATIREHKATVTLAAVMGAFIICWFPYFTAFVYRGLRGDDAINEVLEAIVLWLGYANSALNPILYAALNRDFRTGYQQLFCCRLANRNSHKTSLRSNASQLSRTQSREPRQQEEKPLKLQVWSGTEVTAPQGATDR

CNC(C)C(=O)c1ccc2c(c1)OCO2 (centres unmarked) [methylone, 3,4-methylenedioxy-N-methylcathinone]
activity at 10 µM (168 GPCRs [1]; HRH2, Agonist mode, 10 uM): 2.8%
activity at 1 µM (168 GPCRs [1]; HRH2, Agonist, 1 uM): -2.5%
MBP expression, basolateral nucleus of the amygdala, vs. vehicle [2]: significant reduction in MBP
MBP expression, central nucleus of the amygdala, vs. vehicle [2]: significant reduction in MBP
MBP expression, cortex (control region) [2]: No change in MBP
activity at 10 µM (168 GPCRs [3]; Antagonist mode, 10 uM): -6.6%
activity at 1 µM (168 GPCRs [3]; Antagonist, 1 uM): 6.1%
activity at 10 µM (168 GPCRs [4]; Antagonist mode, 10 uM): -11.3%
activity at 1 µM (168 GPCRs [4]; Antagonist, 1 uM): -2.4%
activity at 1 µM (168 GPCRs [5]; 1 uM): 17.9%
activity at 10 µM (168 GPCRs [5]; 10 uM): 20.6%
activity at 1 µM (168 GPCRs [6]; 1 uM): 2%
activity at 10 µM (168 GPCRs [6]; 10 uM): 4.9%
activity at 10 µM (168 GPCRs [7]; Antagonist mode, 10 uM): 6.9%
activity at 1 µM (168 GPCRs [7]; Antagonist, 1 uM): 12.7%
activity at 10 µM (168 GPCRs [8]; CNR1, Antagonist mode, 10 uM): -17.1%
activity at 1 µM (168 GPCRs [8]; CNR1, Antagonist, 1 uM): -3.5%
activity at 10 µM (168 GPCRs [9]; OPRD1, Antagonist mode, 10 uM): 3.5%
activity at 1 µM (168 GPCRs [9]; OPRD1, Antagonist, 1 uM): -2.7%
activity at 10 µM (168 GPCRs [10]; MRGPRX2, Antagonist mode, 10 uM): 8.9%
activity at 1 µM (168 GPCRs [10]; MRGPRX2, Antagonist, 1 uM): 16.2%
activity at 10 µM (168 GPCRs [11]; OPRL1, Antagonist mode, 10 uM): 13.2%
activity at 1 µM (168 GPCRs [11]; OPRL1, Antagonist, 1 uM): 17.1%
activity at 1 µM (168 GPCRs [12]; 1 uM): -8.1%
activity at 10 µM (168 GPCRs [12]; 10 uM): -16.6%
activity at 10 µM (168 GPCRs [13]; P2RY6, Antagonist mode, 10 uM): 2.6%
activity at 1 µM (168 GPCRs [13]; P2RY6, Antagonist, 1 uM): 6.5%
activity at 1 µM (168 GPCRs [14]; 1 uM): 10%
activity at 10 µM (168 GPCRs [14]; 10 uM): 1.4%
activity at 10 µM (168 GPCRs [15]; GPR1, Antagonist mode, 10 uM): 7.4%
activity at 1 µM (168 GPCRs [15]; GPR1, Antagonist, 1 uM): 4.4%
activity at 1 µM (168 GPCRs [16]; 1 uM): 2.9%
activity at 10 µM (168 GPCRs [16]; 10 uM): -9.9%
activity at 1 µM (168 GPCRs [17]; 1 uM): 13.6%
activity at 10 µM (168 GPCRs [17]; 10 uM): 12.5%
activity at 10 µM (168 GPCRs [18]; Antagonist mode, 10 uM): 5.4%
activity at 1 µM (168 GPCRs [18]; Antagonist, 1 uM): 0.2%
activity at 10 µM (168 GPCRs [19]; Antagonist mode, 10 uM): 12.3%
activity at 1 µM (168 GPCRs [19]; Antagonist, 1 uM): 15.6%
activity at 1 µM (168 GPCRs [20]; 1 uM): -4.3%
activity at 10 µM (168 GPCRs [20]; 10 uM): 17.6%
